Experimental data taken from patent publication US11208427B2, “Dicaffeoyl spermidine derivative glycosides and use thereof” (Jinan University, priority 2016, dated 2021).
Marks after values point to notes of the source that are not given here.

Tests used:
[1] = oxygen radical absorbance capacity (ORAC) experiment; conditions: relative to Trolox; AAPH, fluorescein
Method: The antioxidant activity of the compounds was evaluated by using the oxygen radical absorbance capacity (ORAC) experiment. The detailed experimental procedure is as follows. 0.248 g of AAPH (2,2′-azobisisobutylamidine dihydrochloride) was added to a 50 mL phosphate buffer system to formulate a 18.3 mM AAPH stock solution. 20 μL of phosphate buffer, 20 μL solution of sample to be tested or standard substance Trolox (concentration of 6.25 μM) and 20 μL of fluorescent substance of disodium fluorescein (FL, concentration of 630 nM) were added to the wells of a 96-well plate in order. Then, 140 μL of AAPH (concentration of 18.3 mM) was quickly added to the wells of the 96-well plate, which was immediately placed in a GENios […] microplate reader manufactured by Tecan, Switzerland, the excitation wavelength was set as 485 nm and the emission wavelength was set as 527 nm. The fluorescence intensity was measured every 2 minutes and recorded for a total of 100 min.
The antioxidant capacity of the active substance is calculated as follows: Relative ORAC value=(AUCsample−AUCblank)/(AUCtrolox−AUCblank). Wherein, AUCsample refers to the integral area under the fluorescence decay curve of the test sample, AUCtrolox refers to the integral area under the fluorescence decay curve of the standard substance Trolox, and AUCblank refers to the integral area under the fluorescence decay curve when the test sample or the standard substance Trolox is not added.

[2] = tested on: Senile dementia fruit fly (Aβ42; P35*H29.3); test: learning and memory (olfactory short-term memory, T-Maze) of Senile dementia fruit fly; type: in vivo; conditions: performance index, 100 μM in feed, n = 6
From the text: W^1118 (isoCJ1), as a background fruit fly of control group in the experiment, was abbreviated as “2U”. The fruit flies that successfully introduced with the pathogenic Aβ42 protein were (UAS-Aβ42; abbreviated as “H29.3”). This strain of fruit flies was hybridized with the fruit fly expressing the Gal4 promoter in whole brain, and the fruit fly strain carrying elav-GAL4^c155 (P35) and Aβ42 was obtained.
Three groups of drug-free control of healthy fruit fly, drug-free control of disease fruit fly, and dose disease fruit fly were set in the experiment.
All parents of tested fruit flies were housed and propagated at a constant temperature of 24° C. and a humidity of 42% RH (Relative humidity). On the first day after the emergence of the fruit flies, the fruit flies of control group and disease group, as well as the fruit flies to be administered were anesthetized with carbon dioxide, and then the fruit flies of the correct characters were selected into the glass tube containing food. During the dosing period, all tested fruit flies were kept in an incubator with a constant temperature of 28° C. and a constant humidity of 42% to ensure the drug taking efficiency of the fruit flies. Each day the fruit flies were administered for 4 hours, and the drug was administered from the second day after the fruit flies were selected until the 8th day.
The drugs administered were prepared on the second day after the fruit fly selection, and were administered to the fruit flies on the day of preparation. The drugs were dissolved by 100% DMSO to a concentration of 10 mM. When preparing the working solution, the 10 mM stock solution was diluted to 100 μM with 4% sucrose. In addition, the fruit flies of control group were fed sucrose water containing 1% DMSO. For each Performance Index, two tubes of fruit fly groups are required, each tube containing about 100 fruit flies.
Experiments were conducted in a light proof behavior room with constant temperature of 25° C., constant humidity of 70%. The method can be found in references^[1-3].
1) During the training stage, about 100 flies were loaded into a training tube provided with a copper mesh cross electrode. Two kinds of odors of octanol (OCT) and methylcyclohexanol (MCH) were successively introduced for each 60 s with an intervals for 45 s of fresh air. 60 V pulsed electrical shock stimulation (US, pulse duration 1.5 s, interval 3.5 s) was applied to the fruit flies while introducing the 1st odor. No electrical shock was applied when the second odor (CS−) was introduced. Thereby one training cycle was completed.
2) In the transient memory (learning) ability test, the fruit flies that completed one training cycle were immediately transferred to the selection point of T-Maze, while CS+ and CS− were introduced from the opposite two directions. After two minutes of selection, the fruit flies on both sides were collected separately and counted after anesthesia or sacrifice. The calculation formula for the performance index (PI) is as follows: PI=[(CS−)−(CS+)]/[(CS−)+(CS+)]×100.
Using OCT and MCH as CS+ for training and testing respectively, the average of the two PIs obtained was used as PI for one experiment. […] When performing the activity test, the short-term memory deficit tests for the olfactory sensation of the non-administered healthy flies with the same genetic background (2U*H29.3), non-administered Senile dementia disease flies (P35*H29.3), and test drug administered Senile dementia disease flies were also conducted, and their total learning and memory performance indexes (PIs) was calculated respectively. The learning and memory performance index of the test drug administered Senile dementia disease flies was compared with the performance index of the non-administered healthy flies with the same genetic background (2U*H29.3), and the performance index of the non-administered Senile dementia disease flies (P35*H29.3), to evaluate effect of the test drugs against Senile dementia. […]

[3] = Cytotoxicity assay (MTT); type: cell-based; conditions: human, HEp-2 cells
Method: (§1) 1) HEp-2 cells were seeded in 96-well cell culture plates at 100 μL/well and the cell density was 2.5×10^5/mL. The cells were cultured in a 37° C., 5% CO2 incubator and grown into a cell single layer over about 20 h.
(§2) 2) The culture fluid in the 96-well plate was discarded and the sample to be tested was half diluted into different concentrations by using maintenance solution. For each dilution, 3 replicate wells were set at 100 μL/well, and cell control wells were also set at the same time. Then they were placed in the incubator to continue the culture.
(§3) 3) The cytopathic effect caused by sample toxicity was observed every day. After 72 hours, the culture solution was discarded, and according to the MTT method, 30 μL of 5 mg/mL MTT solution was added into each well. They were placed in the incubator to continue the incubation for 4 h in dark.

[4] = tested on: HEp-2 cells; test: Cytotoxicity assay (MTT); type: cell-based; conditions: 72 hours
Method: as §1, §2, §3

[5] = tested on: respiratory syncytial virus (RSV); test: microbe, parasite or virus in culture; type: cell-based; conditions: for SI = CC50/IC50: RSV, HEp-2 cells; for IC50: RSV in HEp-2 cells, CPE, 60-72 hours
Method: as §1
2) The culture fluid in the 96-well plate was discarded and the sample to be tested was half diluted by using maintenance solution with the starting concentration of the monomeric compound being 50 μM, and 50 μL of sample and 50 μL of 100×TCID50 of virus dilution being added into each well. The positive control drug Ribavirin group, virus control group and cell control group were set and placed in a 37° C., 5% CO2 incubator for culture.
3) The culture was continued for 60-72 hours, and the viral lesions in each group were recorded when the lesions were completely developed in the virus control group.
4) The virus-induced cytopathic effect was recorded as follows: no cellular lesion was recorded as “−”, 0 to 25% cellular lesions was recorded as “+”, 25% to 50% cellular lesion was recorded as “++”, 50%˜75% of cellular lesion was recorded as “+++”, and 75% to 100% of cellular lesion was recorded as “++++”. The sample concentration corresponding to the “++” lesion level is the half inhibitory concentration IC50 of the sample against the virus.
5) Three replicates were performed independently for each experiment.

Compound | ORAC value [1] [μmol TE/μmol] | PI (100 μM) ([2]; experiment a) | PI (100 μM) ([2]; experiment b) | PI (100 μM) ([2]; experiment c) | CC50 at 72 h [3] [µM] | MNCC [4] [µM] | SI = CC50/IC50 [5] | IC50 ([5]; human respiratory syncytial virus) [µM] | CC50 [4] [µM] | IC50 [5] [µM]
O=C(O[C@@H]1Cc2c(O)cc(O)cc2O[C@@H]1c1cc(O)c(O)c(O)c1)c1cc(O)c(O)c(O)c1 [EGCG, epigallocatechin gallate, reference compound] | 1.48 ± 0.02 | – | – | – | – | – | – | – | – | –
CC12CC3CC(C)(C1)CC(N)(C3)C2 [Memantine, reference compound] | – | 43.1 ± 0.9*** | 42.7 ± 0.9*** | 44.2 ± 2.1*** | – | – | – | – | – | –
NC(=O)c1ncn([C@@H]2O[C@H](CO)[C@@H](O)[C@H]2O)n1 [Ribavirin, reference compound] | – | – | – | – | 37.9 ± 3.82 | 15.32 ± 4.31 | 15 | 2.5 | – | –
O=C(/C=C/c1ccc(O)c(O[C@@H]2O[C@H](CO)[C@@H](O)[C@H](O)[C@H]2O)c1)NCCCNCCCCNC(=O)CCc1ccc(O)c(O)c1 [formula III] | 1.87 ± 0.04 | 42.9 ± 1.6*** | – | – | – | >100 | >4 | – | > 100 | 25
O=C(/C=C/c1ccc(O)c(O)c1)NCCCNCCCCNC(=O)CCc1ccc(O[C@@H]2O[C@H](CO)[C@@H](O)[C@H](O)[C@H]2O)c(O)c1 [formula II] | 2.04 ± 0.04 | 35.5 ± 3.8* | – | – | – | >100 | >4 | – | > 100 | 25
O=C(/C=C/c1ccc(O)c(O)c1)NCCCNCCCCNC(=O)CCc1ccc(O)c(O[C@@H]2O[C@H](CO)[C@@H](O)[C@H](O)[C@H]2O)c1 [formula IV] | 1.73 ± 0.04 | 42.2 ± 2.1*** | – | – | – | >100 | >4 | – | > 100 | 25
O=C(/C=C\c1ccc(O)c(O[C@@H]2O[C@H](CO)[C@@H](O)[C@H](O)[C@H]2O)c1)NCCCNCCCCNC(=O)CCc1ccc(O[C@@H]2O[C@H](CO)[C@@H](O)[C@H](O)[C@H]2O)c(O)c1 [formula VIII] | 3.07 ± 0.02 | – | 32.2 ± 2.3* | – | – | >100 | >2 | – | > 100 | –
O=C(/C=C/c1ccc(O)c(O[C@@H]2O[C@H](CO)[C@@H](O)[C@H](O)[C@H]2O)c1)NCCCNCCCCNC(=O)CCc1ccc(O)c(O[C@@H]2O[C@H](CO)[C@@H](O)[C@H](O)[C@H]2O)c1 [formula VII] | 1.02 ± 0.02 | – | 44.6 ± 2.5*** | – | – | >100 | >2 | – | > 100 | –
O=C(/C=C/c1ccc(O[C@@H]2O[C@H](CO)[C@@H](O)[C@H](O)[C@H]2O)c(O)c1)NCCCNCCCCNC(=O)CCc1ccc(O)c(O)c1 [formula V] | 2.96 ± 0.03 | 35.0 ± 1.3* | – | – | – | >100 | >4 | – | > 100 | 25
O=C(CCc1ccc(O[C@@H]2O[C@H](CO)[C@@H](O)[C@H](O)[C@H]2O)c(O)c1)NCCCCNCCCNC(=O)CCc1ccc(O[C@@H]2O[C@H](CO)[C@@H](O)[C@H](O)[C@H]2O)c(O)c1 [formula XIII] | 2.06 ± 0.04 | – | 42.5 ± 3.0*** | – | – | >100 | >4 | – | > 100 | 25
O=C(CCc1ccc(O)c(O[C@@H]2O[C@H](CO)[C@@H](O)[C@H](O)[C@H]2O)c1)NCCCCNCCCNC(=O)CCc1ccc(O)c(O[C@@H]2O[C@H](CO)[C@@H](O)[C@H](O)[C@H]2O)c1 [formula XII] | 1.23 ± 0.04 | – | 33.5 ± 3.0** | – | – | >100 | >2 | – | > 100 | –
O=C(CCc1ccc(O)c(O[C@@H]2O[C@H](CO)[C@@H](O)[C@H](O)[C@H]2O)c1)NCCCCNCCCNC(=O)CCc1ccc(O[C@@H]2O[C@H](CO)[C@@H](O)[C@H](O)[C@H]2O)c(O)c1 [formula XIV] | 1.81 ± 0.05 | – | – | 44.6 ± 1.2*** | – | >100 | >2 | – | > 100 | –
O=C(CCc1ccc(O)c(O)c1)NCCCCNCCCNC(=O)CCc1ccc(O)c(O[C@@H]2O[C@H](CO)[C@@H](O)[C@H](O)[C@H]2O)c1 [formula XI] | 2.07 ± 0.03 | – | 37.2 ± 2.9*** | – | – | >100 | >4 | – | > 100 | 25
